# According to US9630977B2, “Cephalosporin derivatives and pharmaceutical compositions thereof” (Legochem Biosciences, Inc., priority 2011, dated 2017):
# Read-outs that look alike come from different tables or passages of the source.
# Tests used:
# Experiment in all cases: In vitro antibacterial activity test (broth microdilution)
# Type in all cases: cell-based
# P. aeruginosa 43 = tested on: P. aeruginosa 43
# Outline: (§1)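 MIC90 was determined by CLSI broth microdilution against clinical isolates, as the lowest concentration inhibiting visible growth of 90% of organisms relative to untreated control. Final compound concentrations spanned 0.0626–128 ug/mL with 2.5% (V/V) DMSO.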
# A. baumannii 52 = tested on: A. baumannii 52
# Outline: as §1
# E. coli AG100 = tested on: E. coli AG100
# Outline: as §1
# E. cloacae β19 = tested on: E. cloacae β19
# Outline: as §1
# M. catarrhalis 2524 = conditions: Moraxella catarrhalis
# Outline: as §1
# P. aeruginosa 37 = tested on: P. aeruginosa 37
# Outline: as §1
# E. coli β4 = tested on: E. coli β4
# Outline: as §1
# K. pneumoniae β13 = tested on: K. pneumoniae β13
# Outline: as §1
# [1] = tested on: A. calcoaceticus ATCC15473
# Outline: as §1
# A. baumannii 46 = tested on: A. baumannii 46
# Outline: as §1
# P. aeruginosa 6065Y = conditions: Pseudomonas aeruginosa
# Outline: as §1
# P. aeruginosa 1912E = tested on: P. aeruginosa 1912E
# Outline: as §1
# K. pneumoniae β10 = tested on: K. pneumoniae β10
# Outline: as §1
# K. pneumoniae β9 = tested on: K. pneumoniae β9
# Outline: as §1
# A. baumannii 49 = tested on: A. baumannii 49
# Outline: as §1
# P. aeruginosa 40 = tested on: P. aeruginosa 40
# Outline: as §1
# K. pneumoniae β11 = tested on: K. pneumoniae β11
# Outline: as §1
# K. pneumoniae β14 = tested on: K. pneumoniae β14
# Outline: as §1
# K. pneumoniae 2011E = tested on: K. pneumoniae 2011E
# Outline: as §1
# [2] = Pseudomonas aeruginosa, P. aeruginosa 43, read-out: MIC90
# [3] = Acinetobacter baumannii, A. baumannii 52, read-out: MIC90
# [4] = Escherichia coli, AG100, E. coli AG100, read-out: MIC90
# [5] = Enterobacter cloacae, read-out: MIC90
# [6] = M. catarrhalis 2524, read-out: MIC90
# [7] = Pseudomonas aeruginosa, 37, P. aeruginosa 37, read-out: MIC90
# [8] = Escherichia coli, read-out: MIC90
# [9] = Klebsiella pneumoniae, K. pneumoniae β13, read-out: MIC90
# [10] = Acinetobacter calcoaceticus, A. calcoaceticus ATCC15473, read-out: MIC90
# [11] = Acinetobacter baumannii, A. baumannii 46, read-out: MIC90
# [12] = Pseudomonas aeruginosa, 1912E, read-out: MIC90
# [13] = Klebsiella pneumoniae, K. pneumoniae β10, read-out: MIC90
# [14] = Klebsiella pneumoniae, K. pneumoniae β9, read-out: MIC90
# [15] = Acinetobacter baumannii, A. baumannii 49, read-out: MIC90
# [16] = Pseudomonas aeruginosa, 40, P. aeruginosa 40, read-out: MIC90
# [17] = Klebsiella pneumoniae, K. pneumoniae β11, read-out: MIC90
# [18] = Klebsiella pneumoniae, read-out: MIC90
# [19] = Klebsiella pneumoniae, 2011E, K. pneumoniae 2011E, read-out: MIC90
MIC90 (P. aeruginosa 43; [2]),MIC90 (A. baumannii 52; [3]),MIC90 (E. coli AG100; [4]),MIC90 (E. cloacae β19; [5]),MIC90 (M. catarrhalis 2524; [6]),MIC90 (P. aeruginosa 37; [7]),MIC90 (E. coli β4; [8]),MIC90 (K. pneumoniae β13; [9]),"MIC90 [1, 10]",MIC90 (A. baumannii 46; [11]),MIC90 (P. aeruginosa 6065Y; read-out: MIC90),MIC90 (P. aeruginosa 1912E; [12]),MIC90 (K. pneumoniae β10; [13]),MIC90 (K. pneumoniae β9; [14]),MIC90 (A. baumannii 49; [15]),MIC90 (P. aeruginosa 40; [16]),MIC90 (K. pneumoniae β11; [17]),MIC90 (K. pneumoniae β14; [18]),MIC90 (K. pneumoniae 2011E; [19]),SMILES,other results
0.25 µg/mL,2 µg/mL,2 µg/mL,32 µg/mL,0.25 µg/mL,0.125 µg/mL,16 µg/mL,2 µg/mL,0.5 µg/mL,128 µg/mL,1 µg/mL,0.5 µg/mL,0.25 µg/mL,4 µg/mL,8 µg/mL,0.5 µg/mL,64 µg/mL,128 µg/mL,8 µg/mL,CC(C)(O/N=C(\C(=O)N[C@@H]1C(=O)N2C(C(=O)[O-])=C(C[n+]3cnc(N)c(NCCNC(=O)c4cc(=O)c(O)cn4O)c3)CSC12)c1nc(N)sc1Cl)C(=O)O (some centres unmarked) [Compound 15],–
0.25 µg/mL,32 µg/mL,< 0.0625 µg/mL,2 µg/mL,1 µg/mL,0.5 µg/mL,2 µg/mL,0.5 µg/mL,0.5 µg/mL,4 µg/mL,1 µg/mL,0.25 µg/mL,0.125 µg/mL,4 µg/mL,16 µg/mL,0.25 µg/mL,128 µg/mL,128 µg/mL,2 µg/mL,CC(C)(O/N=C(\C(=O)N[C@@H]1C(=O)N2C(C(=O)[O-])=C(C[n+]3cnc(N)c(NCCNC(=O)c4cc(=O)c(O)cn4O)c3)CSC12)c1csc(N)n1)C(=O)O (some centres unmarked) [Compound 1],–
–,–,–,–,–,–,–,–,–,–,–,–,–,–,–,–,–,–,–,CC(C)(O/N=C(\C(=O)N[C@@H]1C(=O)N2C(C(=O)[O-])=C(/C=C/C[n+]3cnc(N)c(NC(=O)CCN)c3)CSC12)c1nsc(N)n1)C(=O)O (some centres unmarked) [Compound 61],"MIC90 (P. aeruginosa 43; Pseudomonas aeruginosa, 43): > 128 µg/mL; MIC90 (A. baumannii 52; Acinetobacter baumannii, 52): 128 µg/mL; MIC90 (E. coli AG100; Escherichia coli, AG100): 0.125 µg/mL; MIC90 (E. cloacae β19; Enterobacter cloacae): 16 µg/mL; MIC90 (M. catarrhalis 2524; 2524): < 0.0625 µg/mL; MIC90 (P. aeruginosa 37; Pseudomonas aeruginosa, 37, P. aeruginosa 37): 32 µg/mL; MIC90 (E. coli β4; Escherichia coli): 0.125 µg/mL; MIC90 (K. pneumoniae β13; Klebsiella pneumoniae): 2 µg/mL; MIC90 ([1]; Acinetobacter calcoaceticus, ATCC15473, A. calcoaceticus ATCC15473): 1 µg/mL; MIC90 (A. baumannii 46; Acinetobacter baumannii, 46, A. baumannii 46): 128 µg/mL; MIC90 (P. aeruginosa 6065Y; 6065Y): 32 µg/mL; MIC90 (P. aeruginosa 1912E; Pseudomonas aeruginosa, 1912E): 2 µg/mL; MIC90 (K. pneumoniae β10; Klebsiella pneumoniae): 1 µg/mL; MIC90 (K. pneumoniae β9; Klebsiella pneumoniae): 16 µg/mL; MIC90 (A. baumannii 49; Acinetobacter baumannii, 49, A. baumannii 49): 128 µg/mL; MIC90 (P. aeruginosa 40; Pseudomonas aeruginosa, 40): 2 µg/mL; MIC90 (K. pneumoniae β11; Klebsiella pneumoniae): > 128 µg/mL; MIC90 (K. pneumoniae β14; Klebsiella pneumoniae): 4 µg/mL; MIC90 (K. pneumoniae 2011E; Klebsiella pneumoniae, 2011E): 0.25 µg/mL"
1 µg/mL,2 µg/mL,0.25 µg/mL,8 µg/mL,0.5 µg/mL,2 µg/mL,8 µg/mL,1 µg/mL,1 µg/mL,16 µg/mL,1 µg/mL,4 µg/mL,0.5 µg/mL,2 µg/mL,32 µg/mL,4 µg/mL,16 µg/mL,64 µg/mL,8 µg/mL,C[C@H](O/N=C(\C(=O)N[C@@H]1C(=O)N2C(C(=O)[O-])=C(C[n+]3cnc(N)c(NC(=O)CCNC(=O)c4cc(=O)c(O)cn4O)c3)CSC12)c1nc(N)sc1Cl)C(=O)O (some centres unmarked) [Compound 20],–

SMILES,MIC90 (P. aeruginosa 43; [2]),MIC90 (A. baumannii 52; [3]),MIC90 (E. coli AG100; [4]),MIC90 (E. cloacae β19; [5]),MIC90 (M. catarrhalis 2524; [6]),MIC90 (P. aeruginosa 37; [7]),MIC90 (E. coli β4; [8]),MIC90 (K. pneumoniae β13; [9]),"MIC90 [1, 10]",MIC90 (A. baumannii 46; [11]),MIC90 (P. aeruginosa 6065Y; read-out: MIC90),MIC90 (P. aeruginosa 1912E; [12]),MIC90 (K. pneumoniae β10; [13]),MIC90 (K. pneumoniae β9; [14]),MIC90 (A. baumannii 49; [15]),MIC90 (P. aeruginosa 40; [16]),MIC90 (K. pneumoniae β11; [17]),MIC90 (K. pneumoniae β14; [18]),MIC90 (K. pneumoniae 2011E; [19]),other results
CC(C)(O/N=C(\C(=O)N[C@@H]1C(=O)N2C(C(=O)[O-])=C(/C=C/C[n+]3cnc(N)c(NCCNC(=O)c4cc(=O)c(O)cn4O)c3)CSC12)c1csc(N)n1)C(=O)O (some centres unmarked) [Compound 10],–,–,–,–,0.5 µg/mL,–,–,–,–,–,4 µg/mL,–,–,–,–,–,–,–,–,MIC90 (P. aeruginosa 43; P. aeruginosa 43): 1 µg/mL; MIC90 (A. baumannii 52; A. baumannii 52): >128 µg/mL; MIC90 (E. coli AG100; E. coli AG100): 0.125 µg/mL; MIC90 (E. cloacae β19): 0.5 µg/mL; MIC90 (P. aeruginosa 37; P. aeruginosa 37): 2 µg/mL; MIC90 (E. coli β4): 0.5 µg/mL; MIC90 (K. pneumoniae β13; K. pneumoniae β13): 2 µg/mL; MIC90 ([1]; A. calcoaceticus ATCC15473): 2 µg/mL; MIC90 (A. baumannii 46; A. baumannii 46): 8 µg/mL; MIC90 (P. aeruginosa 1912E): 4 µg/mL; MIC90 (K. pneumoniae β10; K. pneumoniae β10): <0.0625 µg/mL; MIC90 (K. pneumoniae β9; K. pneumoniae β9): 0.25 µg/mL; MIC90 (A. baumannii 49; A. baumannii 49): >128 µg/mL; MIC90 (P. aeruginosa 40; P. aeruginosa 40): 1 µg/mL; MIC90 (K. pneumoniae β11; K. pneumoniae β11): 32 µg/mL; MIC90 (K. pneumoniae β14): 8 µg/mL; MIC90 (K. pneumoniae 2011E; K. pneumoniae 2011E): 2 µg/mL
